For the experiment, the system named is cotton ball granuloma. Format: in vivo, SD rats. As to conditions: day 8. How it is done:
The rats are randomly divided into a model control group, a positive control (dexamethasone) group, and mPEG-SC20k-HM-3 groups using subcutaneous injection at a high dose, a medium dose and a low dose, a total of 5 groups, and the drugs are administered to each group of animals by subcutaneous injection, for 7 days in succession.
Rats in each group are anesthetized with pentobarbital sodium (40 mg/kg) by intraperitoneal injection, and the abdominal coat is cut off. The skin in the middle of the lower abdomen is cut open under aseptic condition, and the incision is about 1 cm long. The subcutaneous tissue is expanded by vascular forceps, and 30 mg of sterile dry cotton balls (weighed accurately by an electronic balance before the test, and undergoing conventional autoclaving and drying for later use) are implanted hypodermically into the groin on one side. The incision is sutured, and an appropriate amount of amoxicillin is sprinkled on the incision to prevent infection.
The drug is administered on the same day after surgery, and is administered for 7 days in succession. On day 8, the rats are killed by cervical dislocation, the cotton balls are removed surgically, the fat tissue is removed, and the […] at 60° C. The mass of granuloma is expressed in mg (granulomatoma)/100 g (body weight). The granuloma mass difference between each administration group and the model control group is compared, and the inhibition rate is calculated. Data statistical analysis is performed on significant differences between the groups.
Inhibition rate (%)=(average granuloma mass of model control group−average granuloma mass of administration group)/average granuloma mass of model control group×100%.

From patent US20220202912A1, “Polypeptides in Preparation of Drugs for Treatment or Prevention of Rheumatoid Arthritis” (priority 2011, published 2022) come the findings set out here.

Like-named read-outs stand apart in the source and are kept apart here. Where no end group is shown, it is not given here.

“mPEG-SC20k-Ile-Val-Arg-Arg-Ala-Asp-Arg-Ala-Ala-Val-Pro-Gly-Gly-Gly-Gly-Arg-Gly-Asp ({mPEG‑SC 20k}-IVRRADRAAVPGGGGRGD) [polypeptide III, No. 3]”: the “Inhibition rate of cotton ball granuloma” value (5 mg/kg sc once two days (G5)) was 35.67%, the “Inhibition rate of cotton ball granuloma” value (10 mg/kg sc once two days (G4)) is 39.33% and the “Inhibition rate of cotton ball granuloma” value (20 mg/kg sc once two days (G3)) amounted to 38.23%. In addition, the cotton ball granuloma is reported as 0.19 ± 0.03 mg(cotton ball granuloma)/100 g(weight) (5 mg/kg sc once two days (G5)), 0.18 ± 0.02 mg(cotton ball granuloma)/100 g(weight) (10 mg/kg sc once two days (G4)) and 0.18 ± 0.03 mg(cotton ball granuloma)/100 g(weight) (20 mg/kg sc once two days (G3)).
